This assay concerns the target thrombin (Homo sapiens, UniProt P00734). As to the kind of experiment: colorimetric microplate assay with synthetic peptide substrates, inhibition of thrombin. The class given is biochemical. As to the method: The compounds were tested for inhibition of thrombin and trypsin using a colorimetric microplate assay with synthetic peptide substrates as described by Tapparelli, J. Biol. Chem. 268:4734 (1993). […]

Where [1] appears, read: values not in parentheses (purified compounds, error less than 10%), '-' = not active, read-out: Ki Thrombin.

Structures are written as SMILES. Read-outs that look alike come from different tables or passages of the source. Non-standard residues stand in square brackets, D forms with d. Residues, ends and D or L forms follow the SMILES beside them. *: point of attachment. dPhe(4-Br) = N[C@H](Cc1ccc(Br)cc1)C(=O)O; Agmatine = N=C(N)NCCCCN*

Usually Ki stands for a dissociation constant, usually derived from enzyme kinetics or from competition with a known ligand. For the compound `N=C(N)NCCCCNC(=O)[C@@H]1CCCN1C(=O)[C@H](N)Cc1ccc(Br)cc1` [Compound A3B1] (H-[dPhe(4-Br)]-Pro-Agmatine), the Ki (most active compound, read-out: Ki) came out at 41 nM. For `NC(N)=NCCCCNC(=O)[C@@H]1CCCN1C(=O)[C@H](N)Cc1ccccc1` [Compound A2B1] (H-[dF]-Pro-Agmatine), the Ki under setting [1] was 120 nM. As for `NCCCCCNC(=O)[C@@H]1CCCN1C(=O)[C@H](N)Cc1ccccc1` [Compound A2B9], under setting [1], the Ki is 690 nM.
